This passage reports EC50 results from patent US20120040977A1, “INHIBITORS OF HCV NS5A” (PRESIDIO PHARMACEUTICALS, INC., priority 2009, published 2012).

The assay relates to HCV genotype 1b replicon. Put plainly: HCV replicon assay (HCV 1b_Huh-Luc/Neo-ET cell line, luciferase readout). The class given is cell-based. Particulars: Hepatitis C virus; bicistronic genotype 1b replicon in Huh 7 cells, 72 h incubation, luciferase enzyme activity; read-out: Inhibition of HCV genotype 1b. The procedure: Biological activity of the compounds of the invention was determined using an HCV replicon assay. The HCV 1b_Huh-Luc/Neo-ET cell line persistently expressing a bicistronic genotype 1b replicon in Huh 7 cells was obtained from ReBLikon GMBH. This cell line was used to test compound inhibition using luciferase enzyme activity readout as a measurement of compound inhibition of replicon levels.
On Day 1 (the day after plating cells), each compound is added in triplicate to the cells. Plates are incubated for 72 h prior to determining luciferase levels. Enzyme activity was measured using a Bright-Glo Kit (cat. number E2620) manufactured by Promega Corporation. The following equation was used to generate a percent control value for each compound.
% Control=(Average Compound Value/Average Control)*100
The EC50 value was determined using GraphPad Prism and the following equation:
Y=Bottom+(Top−Bottom)/(1+10̂((LogIC50−X)*HillSlope))
EC50 values of compounds are determined several times in the replicon assay. […]
Background: In antiviral work, replicon cells carry a viral genome segment that copies itself.
As for `COC(=O)N[C@H](C(=O)N1CCC[C@H]1C(=O)Nc1ccc(-c2ccc3c(c2)CCc2nc([C@@H]4CCCN4C(=O)[C@@H](NC(=O)OC)C(C)C)[nH]c2-3)cc1)C(C)C` [Compound 112], the EC50 lay in the range of 1 to 9.9 nM.
Turning to `CC(C)[C@@H](NC(=O)C1CC1)C(=O)N1CCOC[C@H]1C(=O)Nc1ccc(-c2ccc(-c3cnc([C@@H]4CCCN4C(=O)[C@H](NC(=O)C4CC4)C(C)C)[nH]3)cc2)cc1` [Compound 23], the EC50 fell in the range of 1 to 9.9 nM.
Under `COC(=O)N[C@@H](C(=O)N1CCC[C@H]1C(=O)NCc1ccc(-c2ccc3nc([C@@H]4CCCN4C(=O)[C@H](NC(=O)OC)c4ccccc4)[nH]c3c2)cc1)c1ccccc1` [Compound 111] stands < 1 nM; under `C=CC[C@H](NC(=O)OC)C(=O)N1CCC[C@H]1C(=O)NCc1ccc(-c2ccc(-c3cnc([C@@H]4CCCN4C(=O)[C@H](CC=C)NC(=O)OC)[nH]3)cc2)cc1` [Compound 80], 1 to 9.9 nM.
Under `COC(=O)N[C@H](C(=O)N1CCC[C@H]1C(=O)NCc1ccc(-c2ccc(-c3cnc([C@@H]4CCCN4C(=O)[C@@H](NC(=O)OC)C(C)C)[nH]3)cc2)cn1)C(C)C` [Compound 119] stands 10 to 999 nM.
Under `C[C@H](NC(=O)[C@@H]1CCCN1C(=O)[C@H](NC(=O)OC(C)(C)C)c1ccccc1)c1ccc(-c2ccc(-c3cnc([C@@H]4CCCN4C(=O)[C@H](NC(=O)OC(C)(C)C)c4ccccc4)[nH]3)cc2)cc1` [Compound 34] stands < 1 nM; under `CN1CCN(C(=O)N[C@@H](C(=O)N2CCC[C@H]2COc2ccc(-c3ccc(-c4cnc([C@@H]5CCCN5C(=O)[C@H](NC(=O)N5CCN(C)CC5)c5ccccc5)[nH]4)cc3)cc2)c2ccccc2)CC1` [Compound 35], 1 to 9.9 nM.
`O=C(N[C@@H](C(=O)N1CCC[C@H]1C(=O)Nc1ccc(-c2ccc(-c3cnc([C@@H]4COCCN4C(=O)[C@H](NC(=O)C4CC4)c4ccccc4)[nH]3)cc2)cc1)c1ccccc1)C1CC1` [Compound 11]: the EC50 was < 1 nM.
Under `COC(=O)N[C@H](C(=O)N1CCC[C@H]1C(=O)N[C@H](C)c1ccc(-c2ccc(-c3cnc([C@@H]4CCCN4C(=O)[C@@H](NC(=O)OC)[C@@H](C)OC)[nH]3)cc2)cc1)[C@@H](C)OC` [Compound 102] stands 10 to 999 nM; under `COC(=O)N[C@H](C(=O)N1CCC[C@H]1C(=O)NCc1ccc(-c2ccc3nc([C@@H]4CCCN4C(=O)[C@@H](NC(=O)OC)C(C)C)[nH]c3c2)cn1)C(C)C` [Compound 121], 10 to 999 nM.
Under `[2H]C([2H])([2H])C([2H])(C([2H])([2H])[2H])C([2H])(NC(=O)OC)C(=O)N1CCC[C@H]1c1ncc(-c2ccc(-c3ccc(CNC(=O)[C@@H]4CCCN4C(=O)[C@@]([2H])(NC(=O)OC)C([2H])(C([2H])([2H])[2H])C([2H])([2H])[2H])cc3)cc2)[nH]1` (some centres unmarked) [Compound 82] stands 1 to 9.9 nM; under `COC(=O)N[C@H](C(=O)N1CCC[C@H]1c1ncc(-c2ccc(Sc3cccc(-c4cnc([C@@H]5CCCN5C(=O)[C@@H](NC(=O)OC)C(C)C)[nH]4)c3)cc2)[nH]1)C(C)C` [Compound 69], < 1 nM.
Under `O=C(N[C@@H](C(=O)N1CCOC[C@H]1C(=O)Nc1ccc(-c2ccc(-c3cnc([C@@H]4CCCN4C(=O)[C@H](NC(=O)C4CC4)c4ccccc4)[nH]3)cc2)cc1)c1ccccc1)C1CC1` [Compound 3] stands < 1 nM; under `COC(=O)N[C@@H](C(=O)N1CCC[C@H]1CNC(=O)c1ccc(-c2ccc(-c3cnc([C@@H]4CCCN4C(=O)[C@@H](c4ccccc4)N4CCOCC4)[nH]3)cc2)cc1)c1ccccc1` [Compound 62], < 1 nM.
On to `COC(=O)N[C@H](C(=O)N[C@@H](C)c1ncc(-c2ccc(-c3ccc(C(=O)NC[C@@H]4CCCN4C(=O)[C@@H](NC(=O)OC)C(C)C)nc3)cc2)[nH]1)C(C)C` [Compound 92], for which the EC50 lay within 1 to 9.9 nM.
`COC(=O)N[C@@H](C(=O)N1CCC[C@H]1c1ncc(-c2ccc(-c3ccc(C(=O)NC[C@@H]4CCCN4C(=O)[C@@H](c4ccccc4)N4CCCCC4)cc3)cc2)[nH]1)c1ccccc1` [Compound 64]: the EC50 is < 1 nM.
Under `CC(C)(C)OC(=O)N[C@@H](C(=O)N1CCC[C@H]1CNC(=O)c1ccc(-c2ccc(-c3cnc([C@@H]4CCCN4C(=O)[C@H](NC(=O)OC(C)(C)C)c4ccccc4)[nH]3)cc2)cc1)c1ccccc1` [Compound 49] stands < 1 nM; under `COC(=O)N[C@@H](C)C(=O)N1CCC[C@H]1C(=O)N[C@@H](C)c1ccc(-c2ccc(-c3cnc([C@@H]4CCCN4C(=O)[C@H](C)NC(=O)OC)[nH]3)cc2)cc1` [Compound 94], 1 to 9.9 nM; under `COC(=O)N[C@H](C(=O)N1CCC[C@H]1C(=O)Nc1ccc(-c2ccc3nc([C@@H]4CCCN4C(=O)[C@@H](NC(=O)OC)C(C)C)[nH]c3c2)cc1)C(C)C` [Compound 73], 1 to 9.9 nM.
With `COC(=O)N[C@@H](C(=O)N1CCC[C@H]1CNC(=O)c1ccc(-c2ccc(-c3cnc([C@@H]4CCCN4C(=O)[C@H](NC(=O)OC)c4ccccc4)[nH]3)cn2)cc1)c1ccccc1` [Compound 79], the EC50 is < 1 nM.
Take `COC(=O)N[C@@H](C)C(=O)N1CCC[C@H]1C(=O)N[C@H](C)c1ccc(-c2ccc(-c3cnc([C@@H]4CCCN4C(=O)[C@H](C)NC(=O)OC)[nH]3)cc2)cc1` [Compound 96]: the EC50 lay in the range of 1 to 9.9 nM.
Under `O=C(N[C@@H](C(=O)N1CCC[C@H]1C(=O)Nc1ccc(-c2ccc(-c3cnc([C@@H]4CCCN4C(=O)[C@H](NC(=O)C4CC4)c4ccccc4)[nH]3)cc2)cc1)c1ccccc1)C1CC1` [Compound 27] stands < 1 nM; under `[2H]C([2H])([2H])C([2H])(C([2H])([2H])[2H])C([2H])(NC(=O)OC)C(=O)N1CCC[C@H]1c1ncc(-c2ccc(-c3ccc(NC(=O)[C@@H]4CCCN4C(=O)[C@@]([2H])(NC(=O)OC)C([2H])(C([2H])([2H])[2H])C([2H])([2H])[2H])cc3)cc2)[nH]1` (some centres unmarked) [Compound 77], < 1 nM; under `COC(=O)N[C@H](C(=O)N1CCC[C@H]1CNC(=O)c1ccc(-c2ccc(-c3cnc([C@@H]4CCCN4C(=O)[C@@H](NC(=O)OC)C(C)C)[nH]3)cc2)cc1)C(C)C` [Compound 99], < 1 nM.
Take `CC(C)(C)OC(=O)N1CCOCC1C(=O)Nc1ccc(-c2ccc(-c3cnc([C@@H]4CCCN4C(=O)OC(C)(C)C)[nH]3)cc2)cc1` (some centres unmarked) [Compound 6]: the EC50 was 10 to 999 nM.
On to `C[C@@H](NC(=O)C1CC1)C(=O)N1CCC[C@H]1C(=O)Nc1ccc(-c2ccc(-c3cnc([C@@H]4CCCN4C(=O)[C@@H](C)NC(=O)C4CC4)[nH]3)cc2)cc1` [Compound 28], for which the EC50 was in the range of 1 to 9.9 nM.
Under `C[C@H](NC(=O)[C@@H]1CCCN1C(=O)[C@H](NC(=O)N1CCOCC1)c1ccccc1)c1ccc(-c2ccc(-c3cnc([C@@H]4CCCN4C(=O)[C@H](NC(=O)N4CCOCC4)c4ccccc4)[nH]3)cc2)cc1` [Compound 38] stands 1 to 9.9 nM.
For the compound `COC(=O)N[C@@H](C(=O)N1CCC[C@H]1c1ncc(-c2ccc(-c3ccc(C(=O)NC[C@@H]4CCCN4C(=O)[C@@H](c4ccccc4)N(C)C)cc3)cc2)[nH]1)c1ccccc1` [Compound 65], the EC50 was < 1 nM.
As to `COC(=O)N[C@@H](C(=O)N1CCC[C@H]1c1ncc(-c2ccc(-c3ccc(NC(=O)[C@@H]4CCCN4C(=O)[C@@H](c4ccccc4)N(C)C)cc3)cc2)[nH]1)c1ccccc1` [Compound 60], the EC50 is < 1 nM.
Under `COC(=O)N[C@@H](C(=O)N1CCC[C@H]1C(=O)NCc1ccc(-c2ccc(-c3cnc([C@@H]4CCCN4C(=O)[C@H](NC(=O)OC)c4ccccc4)[nH]3)cc2)cn1)c1ccccc1` [Compound 120] stands < 1 nM.
With `C[C@@H](NC(=O)[C@@H]1CCCN1C(=O)[C@H](NC(=O)C1CC1)c1ccccc1)c1ccc(-c2ccc(-c3cnc([C@@H]4CCCN4C(=O)[C@H](NC(=O)C4CC4)c4ccccc4)[nH]3)cc2)cc1` [Compound 40], the EC50 is < 1 nM.
Take `CC(C)[C@@H](NC(=O)OC(C)(C)C)C(=O)N1CCC[C@H]1C(=O)Nc1ccc(-c2ccc(-c3cnc([C@@H]4CCCN4C(=O)[C@H](NC(=O)OC(C)(C)C)C(C)C)[nH]3)cc2)cc1` [Compound 15]: the EC50 is 1 to 9.9 nM.
Turning to `COC(=O)N[C@H](C(=O)N1CCC[C@H]1C(=O)N[C@H](C)c1ccc(-c2ccc(-c3cnc([C@@H]4CCCN4C(=O)[C@@H](NC(=O)OC)C(C)C)[nH]3)cc2)cc1)C(C)C` [Compound 97], the EC50 was in the range of 1 to 9.9 nM.
`CC(C)[C@@H](NC(=O)C1CC1)C(=O)N1CCC[C@H]1C(=O)Nc1ccc(-c2ccc(-c3cnc([C@@H]4CCCN4C(=O)[C@H](NC(=O)C4CC4)C(C)C)[nH]3)cc2)cc1` [Compound 29]: the EC50 lay within 1 to 9.9 nM.
For `COC(=O)N[C@@H](C)C(=O)N1CCC[C@H]1C(=O)Nc1ccc(-c2ccc(-c3cnc([C@@H]4CCCN4C(=O)[C@H](C)NC(=O)OC)[nH]3)cc2)cc1` [Compound 108], the EC50 lay in the range of 10 to 999 nM.
With `CC(C)(C)OC(=O)N[C@@H](C(=O)N1CCC[C@H]1C(=O)NCc1ccc(-c2ccc(-c3cnc([C@@H]4CCCN4C(=O)[C@H](NC(=O)OC(C)(C)C)c4ccccc4)[nH]3)cc2)cc1)c1ccccc1` [Compound 33], the EC50 is < 1 nM.
As for `CC(C)(C)OC(=O)N[C@@H](C(=O)N1CCC[C@H]1COc1ccc(-c2ccc(-c3cnc([C@@H]4CCCN4C(=O)[C@H](NC(=O)OC(C)(C)C)c4ccccc4)[nH]3)cc2)cc1)c1ccccc1` [Compound 30], the EC50 was < 1 nM.
For `COC(=O)N[C@H](C(=O)N1CCC[C@H]1C(=O)N[C@H](C)c1ccc(-c2ccc(-c3cnc([C@@H]4CCCN4C(=O)[C@@H](NC(=O)OC)C4CCOCC4)[nH]3)cc2)cc1)C1CCOCC1` [Compound 103], the EC50 was in the range of 10 to 999 nM.
